According to ChEMBL document CHEMBL4371081, “The role of N-terminal heterocycles in hydrogen bonding to α-chymotrypsin” (Bioorg Med Chem Lett, 2019):
pIC50: −log10 of the molar value. Calls of active or inactive are those of the source. The rule behind the calls is not given here. Where a SMILES comes first, the peptide text is derived from it. [ ]: non-standard residue; d: D form. The star is where a group is joined. ξ: configuration not given here. Phe(ol) = N[C@H](CO)Cc1ccccc1; ξF = NC(Cc1ccccc1)C(=O)O; Boc = CC(C)(C)OC(=O)*

test system: not listed separately; assay: Inhibition of alpha-chymotrypsin (unknown origin) using Ala-Ala-Phe-7-AMC as substrate measured over 10 mins by spectrophotometric method; set-up: species or system Homo sapiens

Row | SMILES | pIC50
1 | CC(C)C[C@H](NC(=O)[C@H](C)NC(=O)OC(C)(C)C)C(=O)NC(C=O)Cc1ccccc1 (stereo partly drawn) (Boc-Ala-Leu-[ξF]-aldehyde) | 5.85
2 | COC(=O)c1ccc(C(=O)N[C@@H](CC(C)C)C(=O)NC(C=O)Cc2ccccc2)o1 (mixture of isomers) | 4.44
3 | COC(=O)c1ccc(C(=O)N[C@@H](CC(C)C)C(=O)NC(C=O)Cc2ccccc2)s1 (mixture of isomers) | 4.40
4 | COC(=O)c1cccc(C(=O)N[C@@H](CC(C)C)C(=O)NC(C=O)Cc2ccccc2)n1 (stereo partly specified) | 4.46
5 | COC(=O)c1ccc(C(=O)N[C@@H](CC(C)C)C(=O)NC(C=O)Cc2ccccc2)[nH]1 (mixture of isomers) | 5.96

species: Homo sapiens; assay: Inhibition of alpha-chymotrypsin (unknown origin) at 500 uM using Ala-Ala-Phe-7-AMC as substrate measured over 10 mins by spectrophotometric method

Row | SMILES | inhibition
6 | COC(=O)c1ccc(C(=O)N[C@@H](CC(C)C)C(=O)N[C@H](CO)Cc2ccccc2)s1 | inactive
7 | CCOC(=O)c1ccc(C(=O)N[C@@H](CC(C)C)C(=O)N[C@H](CO)Cc2ccccc2)o1 | inactive
8 | CC(C)C[C@H](NC(=O)[C@H](C)NC(=O)OC(C)(C)C)C(=O)N[C@H](CO)Cc1ccccc1 (Boc-Ala-Leu-[Phe(ol)]) | inactive
9 | COC(=O)c1cccc(C(=O)N[C@@H](CC(C)C)C(=O)N[C@H](CO)Cc2ccccc2)n1 | inactive
10 | COC(=O)c1ccc(C(=O)N[C@@H](CC(C)C)C(=O)N[C@H](CO)Cc2ccccc2)o1 | inactive
11 | COC(=O)c1ccc(C(=O)N[C@@H](CC(C)C)C(=O)N[C@H](CO)Cc2ccccc2)[nH]1 | inactive
